# In patent US9629861B2, “Compositions and methods for treating bacterial infections using ceftaroline” (Forest Laboratories Holdings Limited, priority 2009, dated 2017):
# Where two headings read alike, the source gives them in different places.
# What was measured:
# [1] = Pharmacokinetics in adolescent patients; assay type: in vivo, human; conditions: adolescents 12 to 17; 8 mg/kg ceftaroline fosamil (or 600 mg if >75 kg)
# Method: The pharmacokinetics of ceftaroline were evaluated in adolescent patients (ages 12 to 17) with normal renal function.
# CYP2A6 = target: T1, CYP2A6 (Homo sapiens, UniProt P11509); assay: CYP inhibition in human liver microsomes; assay type: in vitro ADME
# T1 construct: In vitro studies in human liver microsomes; from tissue; host or cells: human liver microsomes
# CYP2B6 = target: T2, CYP2B6 (Homo sapiens, UniProt P20813); assay: CYP inhibition in human liver microsomes; assay type: in vitro ADME
# T2 construct: In vitro studies in human liver microsomes; from tissue; host or cells: human liver microsomes
# CYP2C9 [2] = target: T3, CYP2C9 (Homo sapiens, UniProt P11712); assay: CYP inhibition in human liver microsomes; assay type: in vitro ADME
# T3 construct: In vitro studies in human liver microsomes; from tissue; host or cells: human liver microsomes
# CYP2C19 = target: T4, CYP2C19 (Homo sapiens, UniProt P33261); assay: CYP inhibition in human liver microsomes; assay type: in vitro ADME
# T4 construct: In vitro studies in human liver microsomes; from tissue; host or cells: human liver microsomes
# CYP3A4 = target: T5, CYP3A4 (Homo sapiens, UniProt P08684); assay: CYP inhibition in human liver microsomes; assay type: in vitro ADME
# T5 construct: In vitro studies in human liver microsomes; from tissue; host or cells: human liver microsomes
# CYP2C9 [3] = assay: CYP induction in human hepatocytes; assay type: in vitro ADME
# [4] = system: complicated skin and skin structure infections (cSSSI); assay: Two Phase 3 studies in cSSSI, integrated; assay type: in vivo, human; conditions: co-primary CE and MITT populations
# Method: A total of 1396 adults with clinically documented complicated skin and skin structure infections (cSSSI) were enrolled in two randomized, multi-center, multinational, double-blind, studies comparing 600 mg ceftaroline fosamil administered intravenously over 1 hour every 12 hours to vancomycin plus aztreonam [1 g vancomycin administered intravenously over 1 hour followed by 1 g aztreonam administered intravenously over 1 hour every 12 hours]. Patients with cSSSI (deep/extensive cellulitis, a major abscess, a wound infection [surgical or traumatic], infected insect bites, burns or ulcers, lower extremity infection in patients with diabetes mellitus or peripheral vascular disease), were enrolled in the studies. Treatment duration was 5 to 14 days. A switch to oral therapy was not allowed. The Modified Intent-to-Treat (MITT) population included all patients who received any amount of study drug according to their randomized treatment group.
# The primary efficacy endpoint was clinical response at the Test of Cure (TOC) visit in the co-primary CE and MITT populations (Table 2). […] In a subgroup analysis (CE population), the comparative clinical cure rates between the ceftaroline group and the vancomycin plus aztreonam group were not affected by age, gender, race, ethnicity, or weight.
# [5] = system: Community-Acquired Bacterial Pneumonia (CABP); assay: Phase 3 CABP Study 1 (Example 5, adjunctive clarithromycin); assay type: in vivo, human; conditions: for Clinical Cure Rate at TOC / Treatment Difference in clinical cure rate at TOC: CABP Study 1; for Difference, clinical cure rate at EOT / Difference, favorable microbiological outcome at TOC: ceftaroline minus ceftriaxone, Example 5; for Treatment Difference in clinical cure rate at TOC: versus ceftriaxone
# Method: In both treatment groups of CABP Study 1, two doses of oral clarithromycin (500 mg q12h), were administered as adjunctive therapy starting on Study Day 1. No adjunctive macrolide therapy was used in CABP Study 2. Patients with new or progressive pulmonary infiltrate(s) on chest radiography and clinical signs and symptoms consistent with CABP with the need for hospitalization and IV therapy were enrolled in the studies. Treatment duration was 5 to 7 days. A switch to oral therapy was not allowed. The Modified Intent-to-Treat Efficacy (MITTE) population included all patients who received any amount of study drug according to their randomized treatment group and were in PORT (Pneumonia Outcomes Research Team) Risk Class III or IV.
# The primary efficacy endpoint was the clinical response at the Test of Cure (TOC) visit in the co-primary CE and MITTE populations (Table 4).
# The secondary objective of the study was to evaluate the following: the clinical response at end-of-therapy (EOT); the microbiological favorable outcome rate at TOC; the overall (clinical and radiographic) success rate at TOC; the clinical and microbiological response by pathogen at TOC; clinical relapse at late follow-up (LFU); microbiological reinfection/recurrence at LFU; and safety.
# The primary efficacy outcome measures were the per-subject clinical cure rate at TOC in the CE and MITTE Populations. Subjects were considered clinically cured at TOC if they had total resolution of all signs and symptoms of the baseline infection, or improvement of the infection such that no further antimicrobial therapy was necessary.
# Non-inferiority was concluded if the lower limit of the 95% CI was higher than −10%.
# MDRSP = assay: Example 4 CAP study, outcome by baseline pathogen; assay type: in vivo, Streptococcus pneumoniae
# Source text: (§1) Per-pathogen clinical cure rate and favorable microbiological outcome rate at TOC in the mMITTE and ME Populations;
# S. pneumoniae = assay: Example 4 CAP study, outcome by baseline pathogen; assay type: in vivo, Streptococcus pneumoniae
# Source text: as §1
# H. parainfluenzae = assay: Example 5 CAP study, outcome by baseline pathogen; assay type: in vivo, Haemophilus parainfluenzae
# Source text: as §1
# H. influenzae = assay: Example 5 CAP study, outcome by baseline pathogen; assay type: in vivo
# Source text: as §1
# [6] = human, in vivo
# [7] = human, in vivo; remark: listed apart in the source
# [8] = Example 5
# Method: The 600-mg dose of ceftaroline fosamil infused over 60 minutes was split into two infusions in order to maintain the blind. For subjects with moderate renal impairment (30 mL/min<CrCl≦50 mL/min), as estimated by the Cockroft-Gault formula, unblinded pharmacy staff or unblinded study staff could adjust the dose of ceftaroline fosamil to two consecutive 200 mg infusions and readjust dose to two 300 mg infusions when renal function improved (CrCl>50 mL/min). The duration of treatment was between 5 to 7 days.
# All subjects who received any amount of study drug were included in the safety analysis. Safety measures included monitoring for adverse events (AE) up to TOC and serious adverse events (SAE) through LFU; recording vital signs, physical examination, electrocardiogram (ECG), and clinical laboratory findings (clinical chemistry, hematology, and urinalysis), at prespecified times throughout the study.
# [9] = Safety population, listed as ceftaroline
# T3 sequence (P11712 whole entry): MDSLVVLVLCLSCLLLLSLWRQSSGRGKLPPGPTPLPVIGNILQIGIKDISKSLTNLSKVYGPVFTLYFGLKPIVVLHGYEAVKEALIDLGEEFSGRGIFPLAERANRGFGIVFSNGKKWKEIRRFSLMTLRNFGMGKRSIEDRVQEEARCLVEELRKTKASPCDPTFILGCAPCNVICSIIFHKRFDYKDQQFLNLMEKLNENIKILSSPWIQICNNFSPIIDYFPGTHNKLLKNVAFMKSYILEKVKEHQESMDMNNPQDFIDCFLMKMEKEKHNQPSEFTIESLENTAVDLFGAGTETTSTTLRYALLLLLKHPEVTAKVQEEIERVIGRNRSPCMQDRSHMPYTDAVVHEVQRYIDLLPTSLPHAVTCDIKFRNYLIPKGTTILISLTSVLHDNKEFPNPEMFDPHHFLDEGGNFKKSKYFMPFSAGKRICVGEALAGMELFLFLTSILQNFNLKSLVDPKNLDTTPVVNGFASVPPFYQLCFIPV
# T4 sequence (P33261 whole entry): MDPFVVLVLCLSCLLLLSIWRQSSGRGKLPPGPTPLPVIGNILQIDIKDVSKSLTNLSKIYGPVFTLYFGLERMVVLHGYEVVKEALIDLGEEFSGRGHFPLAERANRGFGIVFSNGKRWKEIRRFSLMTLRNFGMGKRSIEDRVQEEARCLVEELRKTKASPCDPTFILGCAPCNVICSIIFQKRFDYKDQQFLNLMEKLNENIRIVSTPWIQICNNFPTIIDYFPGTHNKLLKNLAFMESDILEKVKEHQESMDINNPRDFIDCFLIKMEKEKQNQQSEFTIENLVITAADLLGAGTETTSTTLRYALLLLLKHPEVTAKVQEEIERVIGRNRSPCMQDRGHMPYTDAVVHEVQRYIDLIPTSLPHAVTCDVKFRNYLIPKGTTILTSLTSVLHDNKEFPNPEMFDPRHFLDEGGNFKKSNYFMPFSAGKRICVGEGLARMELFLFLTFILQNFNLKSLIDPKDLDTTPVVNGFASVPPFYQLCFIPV
# T2 sequence (P20813 whole entry): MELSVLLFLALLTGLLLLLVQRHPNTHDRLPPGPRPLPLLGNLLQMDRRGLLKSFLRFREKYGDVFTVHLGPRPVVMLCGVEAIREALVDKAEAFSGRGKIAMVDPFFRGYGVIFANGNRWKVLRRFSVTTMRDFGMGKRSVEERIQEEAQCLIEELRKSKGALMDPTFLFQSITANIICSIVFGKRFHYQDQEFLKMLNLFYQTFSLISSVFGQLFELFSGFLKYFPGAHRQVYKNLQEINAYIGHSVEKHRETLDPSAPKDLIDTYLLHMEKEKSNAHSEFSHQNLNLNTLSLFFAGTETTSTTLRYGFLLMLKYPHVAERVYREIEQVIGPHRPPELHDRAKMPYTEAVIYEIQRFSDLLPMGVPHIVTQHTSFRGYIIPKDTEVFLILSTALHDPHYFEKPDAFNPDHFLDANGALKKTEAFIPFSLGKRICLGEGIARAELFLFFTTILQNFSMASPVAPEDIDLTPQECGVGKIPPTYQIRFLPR
# T1 sequence (P11509 whole entry): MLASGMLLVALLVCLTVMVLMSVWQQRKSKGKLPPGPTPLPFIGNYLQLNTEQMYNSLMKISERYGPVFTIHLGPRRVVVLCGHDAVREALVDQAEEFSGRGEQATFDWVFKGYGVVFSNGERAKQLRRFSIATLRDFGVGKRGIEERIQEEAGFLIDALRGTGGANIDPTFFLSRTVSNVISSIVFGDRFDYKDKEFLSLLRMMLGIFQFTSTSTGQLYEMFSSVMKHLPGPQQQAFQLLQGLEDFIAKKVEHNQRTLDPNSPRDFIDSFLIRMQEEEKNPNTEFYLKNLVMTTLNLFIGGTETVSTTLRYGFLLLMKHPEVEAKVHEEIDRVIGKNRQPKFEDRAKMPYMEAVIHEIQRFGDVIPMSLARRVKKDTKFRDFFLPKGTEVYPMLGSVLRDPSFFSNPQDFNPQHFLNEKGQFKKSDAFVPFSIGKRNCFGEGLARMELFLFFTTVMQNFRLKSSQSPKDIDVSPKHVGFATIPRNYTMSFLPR
# T5 sequence (P08684 whole entry): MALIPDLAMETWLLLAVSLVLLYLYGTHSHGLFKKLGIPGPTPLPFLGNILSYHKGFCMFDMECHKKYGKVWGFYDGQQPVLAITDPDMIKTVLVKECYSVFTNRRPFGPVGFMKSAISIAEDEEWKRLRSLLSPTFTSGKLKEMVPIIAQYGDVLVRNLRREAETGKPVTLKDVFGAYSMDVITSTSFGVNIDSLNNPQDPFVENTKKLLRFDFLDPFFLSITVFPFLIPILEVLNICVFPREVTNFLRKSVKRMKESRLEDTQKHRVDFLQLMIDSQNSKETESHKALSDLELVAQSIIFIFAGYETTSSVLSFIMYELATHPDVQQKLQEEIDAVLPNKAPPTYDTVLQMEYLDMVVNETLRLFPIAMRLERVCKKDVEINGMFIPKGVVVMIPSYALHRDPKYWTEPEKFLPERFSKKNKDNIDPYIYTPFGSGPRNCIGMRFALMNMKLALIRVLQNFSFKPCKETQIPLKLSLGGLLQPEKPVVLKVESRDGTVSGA
smiles,measurement,setting,value
CCO/N=C(\C(=O)N[C@@H]1C(=O)N2C(C(=O)[O-])=C(Sc3nc(-c4cc[n+](C)cc4)cs3)CS[C@H]12)c1nsc(N)n1 [Ceftaroline],mean AUC less than in adult subjects after 600 mg,[1],~23%
same,mean Cmax less than in adult subjects after 600 mg,[1],about 10%
same,inhibition of CYP2A6,CYP2A6,neither ceftaroline fosamil nor ceftaroline inhibits
same,inhibition of CYP2B6,CYP2B6,neither ceftaroline fosamil nor ceftaroline inhibits
same,inhibition of CYP2C9,CYP2C9 [2],neither ceftaroline fosamil nor ceftaroline inhibits
same,inhibition of CYP2C19,CYP2C19,neither ceftaroline fosamil nor ceftaroline inhibits
same,inhibition of CYP3A4,CYP3A4,neither ceftaroline fosamil nor ceftaroline inhibits
same,induction of CYP2C9,CYP2C9 [3],not inducers
same,clinical response at TOC compared with vancomycin plus aztreonam,[4],non-inferior
same,Clinical Cure Rate at TOC,[5]; CE population,194 (86.6) %
same,Clinical Cure Rate at TOC,[5]; MITTE population,244 (83.8) %
same,"Difference, clinical cure rate at EOT",[5]; CE,7.6%
same,"Difference, favorable microbiological outcome at TOC",[5]; ME,11.0%
same,"Difference, clinical cure rate at EOT",[5]; MITTE,6.3%
same,"Difference, favorable microbiological outcome at TOC",[5]; mMITTE,9.3%
same,Treatment Difference in clinical cure rate at TOC,[5]; CE,8.4%
same,Treatment Difference in clinical cure rate at TOC,[5]; MITTE,6.2%
same,Favorable Microbiological Outcome at TOC by Baseline Pathogen,MDRSP; ME,2/2 (100.0) %
same,Clinical Cure Rate at the TOC Visit by Baseline Pathogen,MDRSP; ME population,2/2 (100.0) %
same,Favorable Microbiological Outcome at TOC by Baseline Pathogen,S. pneumoniae; ME,35/39 (89.7) %
same,Clinical Cure Rate at the TOC Visit by Baseline Pathogen,S. pneumoniae; ME population,33/39 (84.6) %
same,Favorable Microbiological Outcome at TOC by Baseline Pathogen,H. parainfluenzae; ME,7/7 (100.0) %
same,Clinical Cure Rate at the TOC Visit by Baseline Pathogen,H. parainfluenzae; ME population,7/7 (100.0) %
same,Favorable Microbiological Outcome at TOC by Baseline Pathogen,H. influenzae; ME,2/3 (66.7) %
same,Clinical Cure Rate at the TOC Visit by Baseline Pathogen,H. influenzae; ME population,2/3 (66.7) %
same,AUC higher in female than in male subjects,[6],6-15%
same,Cmax higher in female than in male subjects,[6],17-22%
same,"exposure (Cmax and AUC) with concomitant inhibitors, inducers and substrates of cytochrome P450",[7],did not identify any clinically relevant increases
same,TEAEs leading to premature discontinuation from study drug administration,[8],3.7%
same,subjects with SAEs considered possibly or probably related to study drug,[8],2 subjects
same,"Early withdrawal from study, reason Adverse Event",[8]; MITTE population,5 (1.7) %
same,"Any AE (TEAE), subjects",[8]; Safety population,119 (39.9) %
same,"Constipation, subjects",[8]; Safety population,7 (2.3) %
same,"Diarrhea, subjects",[8]; Safety population,14 (4.7) %
same,"Headache, subjects",[8]; Safety population,10 (3.4) %
same,"Hypertension, subjects",[8]; Safety population,6 (2.0) %
same,"Hypokalemia, subjects",[8]; Safety population,4 (1.3) %
same,"Insomnia, subjects",[8]; Safety population,9 (3.0) %
same,"Nausea, subjects",[8]; Safety population,8 ( 2.7) %
same,"Phlebitis, subjects",[8]; Safety population,7 (2.3) %
same,"Any AE (TEAE), subjects",[8]; [9],39.9%
same,"Diarrhea, subjects",[8]; [9],4.7%
same,"Headache, subjects",[8]; [9],3.4%
